Earlier results, collected in patent US10744140B2, “Synergistic nutraceutical beverage formulations providing enhanced thermogenesis, mental clarity, and stamina while minimizing adrenaline and dopamine concentration perturbations associated with withdrawal” (Power Supplements, LLC., priority 2016, dated 2020).
Blank lines part the entries; values can stand above or below the compound they belong to.

What was measured:
rhesus monkey TAAR1 = molecular target: T1, rhesus monkey TAAR1 (Macaca mulatta, UniProt Q8HZ64); settings: HEK293 cells transfected with rhesus monkey TAAR1, CRE-Luc reporter
T1 construct: expressed in transfected cells; host or cells: HEK293 (transient, with CRE-Luc and pGL4.73 reporters)
T1 sequence (Q8HZ64 1-338): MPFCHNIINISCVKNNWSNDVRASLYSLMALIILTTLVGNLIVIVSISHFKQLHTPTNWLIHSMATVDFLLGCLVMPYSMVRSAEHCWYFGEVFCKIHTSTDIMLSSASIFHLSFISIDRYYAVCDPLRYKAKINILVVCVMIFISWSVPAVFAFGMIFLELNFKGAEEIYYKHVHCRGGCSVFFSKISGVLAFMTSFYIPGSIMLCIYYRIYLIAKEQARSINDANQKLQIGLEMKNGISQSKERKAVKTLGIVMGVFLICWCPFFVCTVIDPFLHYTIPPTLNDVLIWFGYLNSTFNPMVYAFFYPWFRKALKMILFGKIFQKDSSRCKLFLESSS

[1] = molecular target: T2, rat trace amine receptor (rTAR1) (Rattus norvegicus, UniProt Q923Y9); settings: 1 μM, HEK 293 cells
T2 construct: expressed in transfected cells; host or cells: HEK 293

young females = settings: 50 mg, two months
humans = settings: higher of two single doses (100 mg, 250 mg)
primate brain = settings: acute administration
[2] = tested on: SERT (serotonin transporter); settings: cells expressing TAAR1 and SERT
[3] = tested on: NET (norepinephrine transporter); settings: cells expressing TAAR1 and NET
[4] = tested on: DAT (dopamine transporter); settings: cells expressing TAAR1 and DAT

T2 sequence (Q923Y9 whole entry): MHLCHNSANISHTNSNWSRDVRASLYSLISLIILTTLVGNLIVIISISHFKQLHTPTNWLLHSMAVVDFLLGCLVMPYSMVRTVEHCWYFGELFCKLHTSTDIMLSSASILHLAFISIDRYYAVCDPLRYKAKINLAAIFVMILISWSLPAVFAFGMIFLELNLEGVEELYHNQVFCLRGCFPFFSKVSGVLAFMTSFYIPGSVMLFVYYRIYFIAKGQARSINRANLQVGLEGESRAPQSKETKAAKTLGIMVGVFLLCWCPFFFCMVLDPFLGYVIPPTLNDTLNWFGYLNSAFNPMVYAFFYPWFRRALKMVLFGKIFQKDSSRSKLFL

TAAR1 activation (cAMP production) (rhesus monkey TAAR1): activates TAAR1 | potency in stimulating cAMP production through the rTAR1 [1]: slightly higher than that of hordenine
SMILES: NCCc1ccc(O)cc1 [tyramine]

SMILES: CN(C)CCc1ccc(O)cc1 [hordenine, N,N-dimethyltyramine]
blood pressure (dogs and rats): increased systolic and diastolic blood pressure | effect on the heart (strength of contraction) (dogs and rats): positive inotropic effect on the heart | movements of the gut (dogs and rats): inhibited | peripheral blood flow (dogs and rats): increased the volume of peripheral blood flow | heart rate (horses; 2 mg/kg intravenous (IV)): doubled | increase of the rate of respiration (horses; 2 mg/kg intravenous (IV)): 250% | respiratory distress (horses; 2 mg/kg intravenous (IV)): substantial respiratory distress | time until all effects disappeared (horses; 2 mg/kg intravenous (IV)): ≤ 30 min | effects after oral dosing (horses; same dose (2 mg/kg) given orally): did not produce any of the effects seen after parenteral administration | potency in stimulating cAMP production through the rTAR1 [1]: almost identical potency to that of the same concentration of β-phenethylamine

TAAR1 activation (cAMP production) (rhesus monkey TAAR1): activates TAAR1
SMILES: NCC(O)c1ccc(O)cc1 (stereo not shown) [OCT, octopamine]

SMILES: Cc1ncc(C[n+]2csc(CCO)c2C)c(N)n1 [thiamine]
attention (decision times in choice reaction time tasks) (young females): improved attention | mood (Profile of Mood States) (young females): improved mood

SMILES: Cc1ncc(CO)c(CO)c1O [vitamin B6, pyridoxine]
dream salience (humans): increase in dream salience | serotonin synthesis in the brain (primate brain): increased serotonin synthesis

SMILES: NCCc1ccccc1 [β-PEA, 2-phenylethylamine]
TAAR1 activation (cAMP production) (rhesus monkey TAAR1): activates TAAR1 | uptake of serotonin by its transporter [2]: reduces the uptake of the monoamines | uptake of norepinephrine by its transporter [3]: reduces the uptake of the monoamines | uptake of dopamine by its transporter [4]: reduces the uptake of the monoamines

SMILES: NCCc1c[nH]c2ccccc12 [TRY, tryptamine]
TAAR1 activation (cAMP production) (rhesus monkey TAAR1): activates TAAR1
